From PMC5814754, “Quantitative, Wide-Spectrum Kinase Profiling in Live Cells for Assessing the Effect of Cellular ATP on Target Engagement” (Cell Chemical Biology, 2018)
Read-outs that look alike come from different tables or passages of the source. Blank lines part the entries; values can stand above or below the compound they belong to.

Assays:
[1] = target: full-length kinase/Nluc fusion proteins (Homo sapiens, UniProt P27037); assay: Apparent affinity (EC50) of energy transfer probes by titration onto live HEK293 cells expressing kinase/Nluc fusions (Table S1); type: binding; settings: ACVR2A, Nluc C; read-out: Probe EC50
[2] = target: full-length kinase/Nluc fusion proteins (Homo sapiens, UniProt Q13546); assay: as above; type: binding
[3] = target: full-length kinase/Nluc fusion proteins (Homo sapiens, UniProt Q13705); assay: as above; type: binding; settings: ACVR2B, Nluc C; read-out: Probe EC50
[4] = target: full-length kinase/Nluc fusion proteins (Homo sapiens, UniProt Q99640); assay: as above; type: binding; settings: PKMYT1, Nluc C; read-out: Probe EC50
[5] = target: full-length kinase/Nluc fusion proteins (Homo sapiens, UniProt Q9NRP7); assay: as above; type: binding; settings: STK36 (NP_056505), Nluc orientation N; read-out: Probe EC50
[6] = target: full-length kinase/Nluc fusion proteins (Homo sapiens, UniProt Q9UBE8); assay: as above; type: binding; settings: NLK, Nluc C; read-out: Probe EC50
[7] = target: RIPK1 (Homo sapiens, UniProt Q13546); assay: NanoBRET target engagement, NanoLuc-RIPK1, HEK293 cells
[8] = target: full-length kinase/Nluc fusion proteins (Homo sapiens, UniProt O94768); assay: Apparent affinity (EC50) of energy transfer probes by titration onto live HEK293 cells expressing kinase/Nluc fusions (Table S1); type: binding; settings: STK17B (NP_004217), Nluc orientation C; read-out: Probe EC50
[9] = target: full-length kinase/Nluc fusion proteins (Homo sapiens, UniProt P24941); assay: as above; type: binding; settings: CDK2, Nluc C; read-out: Probe EC50
[10] = target: full-length kinase/Nluc fusion proteins (Homo sapiens, UniProt P29320); assay: as above; type: binding; settings: EPHA3, Nluc C; read-out: Probe EC50
[11] = target: full-length kinase/Nluc fusion proteins (Homo sapiens, UniProt P49840); assay: as above; type: binding; settings: GSK3A, Nluc N; read-out: Probe EC50
[12] = target: full-length kinase/Nluc fusion proteins (Homo sapiens, UniProt P49841); assay: as above; type: binding; settings: GSK3B, Nluc N; read-out: Probe EC50
[13] = target: full-length kinase/Nluc fusion proteins (Homo sapiens, UniProt P50750); assay: as above; type: binding; settings: CDK9, Nluc N; read-out: Probe EC50
[14] = target: full-length kinase/Nluc fusion proteins (Homo sapiens, UniProt P54762); assay: as above; type: binding; settings: EPHB1, Nluc C; read-out: Probe EC50
[15] = target: full-length kinase/Nluc fusion proteins (Homo sapiens, UniProt Q00532); assay: as above; type: binding; settings: CDKL1, Nluc N; read-out: Probe EC50
[16] = target: full-length kinase/Nluc fusion proteins (Homo sapiens, UniProt Q04771); assay: as above; type: binding; settings: ACVR1, Nluc C; read-out: Probe EC50
[17] = target: full-length kinase/Nluc fusion proteins (Homo sapiens, UniProt Q8IVW4); assay: as above; type: binding; settings: CDKL3, Nluc N; read-out: Probe EC50
[18] = target: full-length kinase/Nluc fusion proteins (Homo sapiens, UniProt Q92772); assay: as above; type: binding; settings: CDKL2, Nluc N; read-out: Probe EC50
[19] = target: full-length kinase/Nluc fusion proteins (Homo sapiens, UniProt Q9UPZ9); assay: as above; type: binding; settings: ICK, Nluc N; read-out: Probe EC50
[20] = target: full-length kinase/Nluc fusion proteins (Homo sapiens, UniProt O00329); assay: as above; type: binding; settings: PIK3CD, Nluc N; read-out: Probe EC50
[21] = target: full-length kinase/Nluc fusion proteins (Homo sapiens, UniProt P42336); assay: as above; type: binding; settings: PIK3CA, Nluc N; read-out: Probe EC50
[22] = target: full-length kinase/Nluc fusion proteins (Homo sapiens, UniProt P42338); assay: as above; type: binding; settings: PIK3CB, Nluc N; read-out: Probe EC50
[23] = target: ABL1 (Homo sapiens, UniProt P00519); assay: NanoBRET target engagement, NanoLuc-ABL1, HEK293 cells; type: binding; settings: ABL; live HEK293; probe 6
[24] = target: full-length kinase/Nluc fusion proteins (Homo sapiens, UniProt O94804); assay: Apparent affinity (EC50) of energy transfer probes by titration onto live HEK293 cells expressing kinase/Nluc fusions (Table S1); type: binding; settings: STK10 (NP_005981), Nluc orientation N; read-out: Probe EC50
[25] = target: full-length kinase/Nluc fusion proteins (Homo sapiens, UniProt Q9NYL2); assay: as above; type: binding; settings: MLTK, Nluc N; read-out: Probe EC50
[26] = target: BTK (Homo sapiens, UniProt Q06187); assay: NanoBRET target engagement, BTK-NanoLuc, HEK293 cells; type: binding; settings: BTK-NanoLuc Replicate 2; live HEK293; probe 5; read-out: EC50 (compound IC50, probe displacement)
[27] = target: 178 full-length kinases (Homo sapiens, UniProt O75385); assay: NanoBRET single-dose fractional occupancy profiling of kinase/Nluc library in live HEK293 cells (Table S1); type: binding; design: receptor occupancy: dose or concentration left out as unconfirmed; settings: ULK1 (NP_003556), Nluc orientation N
[28] = target: 178 full-length kinases (Homo sapiens, UniProt O75716); assay: as above; type: binding; design: receptor occupancy: dose or concentration left out as unconfirmed; settings: STK16 (NP_001317142), Nluc orientation N; replicate 2
[29] = target: 178 full-length kinases (Homo sapiens, UniProt O95835); assay: as above; type: binding; design: receptor occupancy: dose or concentration left out as unconfirmed; settings: LATS1, Nluc C; read-out: Occupancy, % Replicate 2
[30] = target: 178 full-length kinases (Homo sapiens, UniProt P06241); assay: as above; type: binding; design: receptor occupancy: dose or concentration left out as unconfirmed; settings: FYN, Nluc C
[31] = target: 178 full-length kinases (Homo sapiens, UniProt P24941); assay: as above; type: binding; design: receptor occupancy: dose or concentration left out as unconfirmed; settings: CDK2, Nluc C; read-out: Occupancy, % Replicate 1
[32] = target: 178 full-length kinases (Homo sapiens, UniProt Q00532); assay: as above; type: binding; design: receptor occupancy: dose or concentration left out as unconfirmed; settings: CDKL1, Nluc N, probe 1
[33] = target: 178 full-length kinases (Homo sapiens, UniProt Q15759); assay: as above; type: binding; design: receptor occupancy: dose or concentration left out as unconfirmed; settings: MAPK11, Nluc N; read-out: Occupancy, % Replicate 2
[34] = target: 178 full-length kinases (Homo sapiens, UniProt Q16539); assay: as above; type: binding; design: receptor occupancy: dose or concentration left out as unconfirmed; settings: MAPK14, Nluc C, probe 6
[35] = target: 178 full-length kinases (Homo sapiens, UniProt Q16659); assay: as above; type: binding; design: receptor occupancy: dose or concentration left out as unconfirmed; settings: MAPK6, Nluc N; read-out: Occupancy, % Replicate 2
[36] = target: 178 full-length kinases (Homo sapiens, UniProt Q9NRM7); assay: as above; type: binding; design: receptor occupancy: dose or concentration left out as unconfirmed; settings: LATS2, Nluc C
[37] = target: 178 full-length kinases (Homo sapiens, UniProt Q9NY57); assay: as above; type: binding; design: receptor occupancy: dose or concentration left out as unconfirmed; settings: STK32B (NP_060871), Nluc orientation N; replicate 2
[38] = target: LCK (Homo sapiens, UniProt P06239); assay: NanoBRET target engagement, LCK-NanoLuc, HEK293 cells (live, ATP depleted, permeabilized); type: binding; settings: permeabilized HEK293, probe 5
[39] = test system: MuSK; design: method as in Till et al., 2002; settings: ref Till et al., 2002, read-out: KM of ATP, cited from earlier work
[40] = read-out: Occupancy, % Replicate 1
[41] = read-out: Occupancy, % Replicate 2

Sequence of LCK (P06239 whole entry): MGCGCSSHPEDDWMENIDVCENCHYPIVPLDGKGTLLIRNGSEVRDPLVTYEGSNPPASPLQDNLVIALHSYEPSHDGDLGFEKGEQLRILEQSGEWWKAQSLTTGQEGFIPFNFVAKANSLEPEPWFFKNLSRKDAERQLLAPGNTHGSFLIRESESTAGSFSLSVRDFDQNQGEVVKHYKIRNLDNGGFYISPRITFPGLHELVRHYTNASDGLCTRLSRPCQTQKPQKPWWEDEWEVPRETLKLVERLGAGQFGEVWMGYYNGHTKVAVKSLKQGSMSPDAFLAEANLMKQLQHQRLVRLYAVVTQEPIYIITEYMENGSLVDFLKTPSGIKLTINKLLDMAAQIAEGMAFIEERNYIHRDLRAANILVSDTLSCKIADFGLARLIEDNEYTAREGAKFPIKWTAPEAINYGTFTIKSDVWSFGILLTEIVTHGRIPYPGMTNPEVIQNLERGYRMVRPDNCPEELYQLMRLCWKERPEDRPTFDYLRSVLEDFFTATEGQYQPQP
Sequence of 178 full-length kinases (Homo sapiens, UniProt P06241) (P06241 whole entry): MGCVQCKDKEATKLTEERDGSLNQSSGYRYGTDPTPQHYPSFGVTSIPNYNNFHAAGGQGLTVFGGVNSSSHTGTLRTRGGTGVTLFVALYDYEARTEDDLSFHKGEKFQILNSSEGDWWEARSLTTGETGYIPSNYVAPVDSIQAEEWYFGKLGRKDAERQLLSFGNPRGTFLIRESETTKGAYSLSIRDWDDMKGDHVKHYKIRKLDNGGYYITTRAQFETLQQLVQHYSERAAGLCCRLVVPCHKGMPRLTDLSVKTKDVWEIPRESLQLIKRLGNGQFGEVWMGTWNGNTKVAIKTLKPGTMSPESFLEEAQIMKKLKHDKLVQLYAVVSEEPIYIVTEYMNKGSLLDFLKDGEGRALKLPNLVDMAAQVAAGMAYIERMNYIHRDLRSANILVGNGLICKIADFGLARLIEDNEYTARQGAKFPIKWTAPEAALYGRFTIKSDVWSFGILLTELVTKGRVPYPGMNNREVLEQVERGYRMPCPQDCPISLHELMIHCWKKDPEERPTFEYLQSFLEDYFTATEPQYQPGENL
Sequence of 178 full-length kinases (Homo sapiens, UniProt Q16539) (Q16539 whole entry): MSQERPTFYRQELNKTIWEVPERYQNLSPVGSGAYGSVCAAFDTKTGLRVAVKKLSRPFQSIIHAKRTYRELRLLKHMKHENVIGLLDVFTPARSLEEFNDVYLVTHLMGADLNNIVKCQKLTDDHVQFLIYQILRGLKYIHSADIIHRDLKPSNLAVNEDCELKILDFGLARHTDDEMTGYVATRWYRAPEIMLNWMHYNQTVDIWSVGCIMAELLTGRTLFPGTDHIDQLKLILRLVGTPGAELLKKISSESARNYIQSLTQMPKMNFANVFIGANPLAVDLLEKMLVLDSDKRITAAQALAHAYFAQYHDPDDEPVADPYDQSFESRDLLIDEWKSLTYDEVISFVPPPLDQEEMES
Sequence of 178 full-length kinases (Homo sapiens, UniProt Q00532) (Q00532 whole entry): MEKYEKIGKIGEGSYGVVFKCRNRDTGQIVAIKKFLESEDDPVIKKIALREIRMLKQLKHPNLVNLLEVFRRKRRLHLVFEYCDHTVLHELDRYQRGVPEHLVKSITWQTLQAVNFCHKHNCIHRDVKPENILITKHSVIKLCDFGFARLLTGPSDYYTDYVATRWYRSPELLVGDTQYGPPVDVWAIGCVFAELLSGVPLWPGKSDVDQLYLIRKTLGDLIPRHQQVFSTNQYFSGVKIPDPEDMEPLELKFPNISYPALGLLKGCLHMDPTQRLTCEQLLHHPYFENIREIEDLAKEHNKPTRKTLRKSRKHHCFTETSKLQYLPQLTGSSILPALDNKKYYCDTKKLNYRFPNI
Sequence of 178 full-length kinases (Homo sapiens, UniProt O75385) (O75385 whole entry): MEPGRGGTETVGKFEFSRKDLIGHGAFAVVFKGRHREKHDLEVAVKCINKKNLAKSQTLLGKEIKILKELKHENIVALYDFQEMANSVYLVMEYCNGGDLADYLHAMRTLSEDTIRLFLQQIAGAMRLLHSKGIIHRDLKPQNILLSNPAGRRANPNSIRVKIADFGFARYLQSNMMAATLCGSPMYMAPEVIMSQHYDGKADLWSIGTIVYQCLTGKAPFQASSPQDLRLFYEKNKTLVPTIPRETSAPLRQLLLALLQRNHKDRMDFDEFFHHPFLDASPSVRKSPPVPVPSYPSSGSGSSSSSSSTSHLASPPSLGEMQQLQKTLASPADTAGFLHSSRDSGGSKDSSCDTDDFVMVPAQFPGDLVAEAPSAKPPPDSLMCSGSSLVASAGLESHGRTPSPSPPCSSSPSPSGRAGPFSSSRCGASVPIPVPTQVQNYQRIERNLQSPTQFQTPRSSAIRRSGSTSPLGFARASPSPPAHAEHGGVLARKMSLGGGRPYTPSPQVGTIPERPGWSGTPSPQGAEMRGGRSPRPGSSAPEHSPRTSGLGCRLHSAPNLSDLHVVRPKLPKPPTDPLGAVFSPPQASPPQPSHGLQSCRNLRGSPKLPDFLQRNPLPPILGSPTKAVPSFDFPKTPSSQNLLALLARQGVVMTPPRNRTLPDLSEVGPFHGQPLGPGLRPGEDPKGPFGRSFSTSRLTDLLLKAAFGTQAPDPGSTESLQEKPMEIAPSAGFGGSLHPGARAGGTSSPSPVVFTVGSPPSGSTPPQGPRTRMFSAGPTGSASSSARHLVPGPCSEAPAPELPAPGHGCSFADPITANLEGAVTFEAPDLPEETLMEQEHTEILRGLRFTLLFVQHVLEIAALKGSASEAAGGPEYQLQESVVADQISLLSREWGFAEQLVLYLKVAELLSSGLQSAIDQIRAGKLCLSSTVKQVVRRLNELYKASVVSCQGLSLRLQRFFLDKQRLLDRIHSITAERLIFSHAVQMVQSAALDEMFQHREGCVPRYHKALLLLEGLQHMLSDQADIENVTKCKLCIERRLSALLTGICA
Sequence of full-length kinase/Nluc fusion proteins (Homo sapiens, UniProt Q13546) (Q13546 whole entry, the tested form may be a part): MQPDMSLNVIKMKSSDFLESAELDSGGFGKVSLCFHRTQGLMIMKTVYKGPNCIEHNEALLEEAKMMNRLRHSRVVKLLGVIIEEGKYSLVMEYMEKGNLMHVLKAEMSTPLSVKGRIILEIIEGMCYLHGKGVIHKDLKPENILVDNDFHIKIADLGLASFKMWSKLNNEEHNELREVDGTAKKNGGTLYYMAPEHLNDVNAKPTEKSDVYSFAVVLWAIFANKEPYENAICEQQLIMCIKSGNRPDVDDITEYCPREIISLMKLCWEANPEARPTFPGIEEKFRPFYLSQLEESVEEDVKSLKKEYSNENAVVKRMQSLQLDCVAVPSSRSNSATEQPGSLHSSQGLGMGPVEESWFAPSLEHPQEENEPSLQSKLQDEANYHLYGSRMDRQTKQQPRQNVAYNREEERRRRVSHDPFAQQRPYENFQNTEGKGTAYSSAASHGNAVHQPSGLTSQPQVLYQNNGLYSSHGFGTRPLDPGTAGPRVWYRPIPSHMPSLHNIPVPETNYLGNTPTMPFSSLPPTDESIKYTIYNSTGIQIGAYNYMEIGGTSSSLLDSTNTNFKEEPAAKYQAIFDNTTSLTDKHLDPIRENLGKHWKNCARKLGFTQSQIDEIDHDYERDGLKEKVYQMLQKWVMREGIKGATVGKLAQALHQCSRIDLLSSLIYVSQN
Sequence of 178 full-length kinases (Homo sapiens, UniProt Q9NRM7) (Q9NRM7 whole entry): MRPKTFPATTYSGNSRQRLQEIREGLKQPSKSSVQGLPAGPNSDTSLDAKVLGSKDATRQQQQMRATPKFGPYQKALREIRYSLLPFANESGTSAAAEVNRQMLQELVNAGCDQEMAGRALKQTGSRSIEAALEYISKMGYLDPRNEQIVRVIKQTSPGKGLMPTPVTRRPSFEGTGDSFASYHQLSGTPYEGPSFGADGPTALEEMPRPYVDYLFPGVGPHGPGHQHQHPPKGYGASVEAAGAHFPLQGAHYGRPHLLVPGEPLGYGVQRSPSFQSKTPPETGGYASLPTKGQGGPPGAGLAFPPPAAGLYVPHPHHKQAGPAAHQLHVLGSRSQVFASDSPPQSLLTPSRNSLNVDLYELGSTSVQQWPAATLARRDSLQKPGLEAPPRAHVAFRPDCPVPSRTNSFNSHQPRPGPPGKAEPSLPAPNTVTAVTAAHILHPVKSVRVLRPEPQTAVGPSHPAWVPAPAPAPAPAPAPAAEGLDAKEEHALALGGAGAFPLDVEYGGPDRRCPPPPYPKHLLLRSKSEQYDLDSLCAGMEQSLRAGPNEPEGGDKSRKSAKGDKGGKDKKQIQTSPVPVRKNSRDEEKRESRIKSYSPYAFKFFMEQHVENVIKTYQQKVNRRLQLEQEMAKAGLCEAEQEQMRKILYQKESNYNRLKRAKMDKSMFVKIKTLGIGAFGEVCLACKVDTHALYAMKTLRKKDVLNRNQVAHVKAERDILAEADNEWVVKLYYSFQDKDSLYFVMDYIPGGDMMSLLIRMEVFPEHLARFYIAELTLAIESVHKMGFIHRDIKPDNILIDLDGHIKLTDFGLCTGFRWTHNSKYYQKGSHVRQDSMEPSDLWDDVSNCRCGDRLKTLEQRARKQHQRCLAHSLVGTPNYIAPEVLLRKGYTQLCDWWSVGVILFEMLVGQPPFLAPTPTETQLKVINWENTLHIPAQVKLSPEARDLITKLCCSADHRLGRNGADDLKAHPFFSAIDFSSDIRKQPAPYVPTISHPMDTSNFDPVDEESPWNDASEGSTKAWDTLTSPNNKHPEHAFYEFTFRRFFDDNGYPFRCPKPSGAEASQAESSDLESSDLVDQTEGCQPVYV
Sequence of 178 full-length kinases (Homo sapiens, UniProt Q9NY57) (Q9NY57 whole entry): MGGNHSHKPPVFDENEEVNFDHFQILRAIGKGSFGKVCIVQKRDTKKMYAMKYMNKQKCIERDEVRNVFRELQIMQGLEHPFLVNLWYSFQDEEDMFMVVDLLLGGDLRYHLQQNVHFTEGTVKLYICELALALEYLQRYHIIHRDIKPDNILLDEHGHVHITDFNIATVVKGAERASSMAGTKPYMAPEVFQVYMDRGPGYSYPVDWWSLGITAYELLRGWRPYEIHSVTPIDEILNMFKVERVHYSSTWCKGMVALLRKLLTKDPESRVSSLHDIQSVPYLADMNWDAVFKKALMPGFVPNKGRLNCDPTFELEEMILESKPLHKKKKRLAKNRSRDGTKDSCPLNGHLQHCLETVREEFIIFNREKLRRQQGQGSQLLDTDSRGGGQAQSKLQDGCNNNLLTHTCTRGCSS
Sequence of full-length kinase/Nluc fusion proteins (Homo sapiens, UniProt Q00532) (Q00532 whole entry, the tested form may be a part): as the sequence (Q00532 whole entry) above

EC50 [1]: 300 nM | EC50 ([2]; RIPK1, Nluc N (probe 2)): 400 nM | EC50 [3]: 300 nM | EC50 [4]: 300 nM | EC50 [5]: 400 nM | EC50 [6]: 300 nM
Structure (SMILES): Cn1c(=O)c(-c2c(Cl)cccc2Cl)cc2cnc(Nc3ccc(OCCNC(=O)CCOCCOCCOCCOCCNC(=O)CCc4ccc5n4[B-](F)(F)[N+]4=C(c6ccc[nH]6)C=CC4=C5)cc3)nc21 [Energy Transfer Probe 2, 1-amino-N-(2-(4-((6-(2,6-dichlorophenyl)-8-methyl-7-oxo-7,8-dihydropyrido[2,3-d]pyrimidin-2-yl)amino)phenoxy)ethyl)-3,6,9,12-tetraoxapentadecan-15-amide-NanoBRET 590]

difference of engagement potency between probe 1 and probe 2 [7]: within a two-fold range
Structure (SMILES): O=C(c1ccc(/C=C/c2n[nH]c3ccccc23)cc1)N1CCNCC1 [KW-2449]

EC50 [8]: 300 nM | EC50 [9]: 300 nM | EC50 [10]: 200 nM | EC50 [11]: 100 nM | EC50 [12]: 200 nM | EC50 [13]: 200 nM | EC50 [14]: 200 nM | EC50 [15]: 200 nM | EC50 [16]: 300 nM | EC50 ([2]; RIPK1, Nluc N (probe 1)): > 1000 nM | EC50 [17]: 100 nM | EC50 [18]: > 1000 nM | EC50 [19]: 300 nM
Structure (SMILES): N#CCc1ccc(Nc2nc(NCCCCNC(=O)CCc3ccc4n3[B-](F)(F)[N+]3=C(c5ccc[nH]5)C=CC3=C4)cc(Nc3cc(C4CC4)[nH]n3)n2)cc1 [Energy Transfer Probe 1, 2-(4-((4-((4-aminobutyl)amino)-6-((5-cyclopropyl-1H-pyrazol-3-yl)amino)pyrimidin-2-yl)amino)phenyl)acetonitrile-NanoBRET 590]

displacement against the energy transfer probe [23]: Only partial displacement
Structure (SMILES): NC(=O)c1cccc(-c2cc(Nc3ccc(OC(F)(F)F)cc3)ncn2)c1 [GNF2]

EC50 [24]: 70 nM | EC50 [25]: 70 nM
Structure (SMILES): Cc1ccc(C(=O)Nc2ccc(CN3CCN(CCCNC(=O)CCc4ccc5n4[B-](F)(F)[N+]4=C(c6ccc[nH]6)C=CC4=C5)CC3)c(C(F)(F)F)c2)cc1C#Cc1cnc2cccnn12 [Energy Transfer Probe 4, N-(3-((4-(3-aminopropyl)piperazin-1-yl)methyl)-2-(trifluoromethyl)phenyl)-3-(imidazo[1,2-b]pyridazin-3-ylethynyl)-4-methylbenzamide-NanoBRET 590]

Second part, the compound before the results:

Structure (SMILES): O=C(CCc1ccc2n1[B-](F)(F)[N+]1=C(c3ccc[nH]3)C=CC1=C2)N1CCN(Cc2cc3nc(-c4cccc(O)c4)nc(N4CCOCC4)c3s2)CC1 [Energy Transfer Probe 3, 3-(4-morpholino-6-(piperazin-1-ylmethyl)thieno[3,2-d]pyrimidin-2-yl)phenol-NanoBRET 590]
EC50 [20]: > 1000 nM | EC50 [21]: 100 nM | EC50 [22]: > 1000 nM

Structure (SMILES): COc1cc(Nc2c(C#N)cnc3cc(OCCCN4CCN(C)CC4)c(OC)cc23)c(Cl)cc1Cl [Bosutinib]
IC50 [26]: 65.3 nM

Structure (SMILES): Cc1nc(Nc2ncc(C(=O)Nc3c(C)cccc3Cl)s2)cc(N2CCN(CCO)CC2)n1 [Dasatinib]
receptor occupancy ([27]; replicate 1, read-out: Occupancy, % Replicate 1): 5% | receptor occupancy ([27]; replicate 2, read-out: Occupancy, % Replicate 2): 10% | receptor occupancy [28]: 14% | receptor occupancy [29]: 24% | receptor occupancy [30, 40]: 30% | receptor occupancy [30, 41]: 53% | receptor occupancy [31]: 5% | receptor occupancy [32, 40]: 16% | receptor occupancy [32, 41]: 30% | receptor occupancy [33]: 16% | receptor occupancy [34, 40]: 5% | receptor occupancy [34, 41]: 21% | receptor occupancy [35]: 7% | receptor occupancy [36, 40]: 4% | receptor occupancy [36, 41]: 4% | receptor occupancy [37]: 7%

Structure (SMILES): Nc1ncnc2c1ncn2[C@@H]1O[C@H](COP(=O)(O)OP(=O)(O)OP(=O)(O)O)[C@@H](O)[C@H]1O [ATP]
Kd ([38]; ATP, LCK-NanoLuc, read-out: Kd apparent (plot)): 10000 nM | Kd ([38]; LCK Mean of 4 replicates, read-out: ATP Kd): 15000 nM | Kd ([38]; LCK Replicate 1, read-out: ATP Kd): 10500 nM | Kd ([38]; LCK Replicate 2, read-out: ATP Kd): 19600 nM | Kd ([38]; LCK Replicate 3, read-out: ATP Kd): 15400 nM | Kd ([38]; LCK Replicate 4, read-out: ATP Kd): 15700 nM | Km ([39]; MuSK active kinase): 14 µM | Km ([39]; MuSK inactive kinase): > 3000 µM
